Tests used:
[1] = test system: PARP1 chromatin association in eHAP SMUG1−/− cells; assay: PARP trapping assay (chromatin fractionation), eHAP SMUG1−/− cells; assay type: cell-based, human; conditions: MMS 0.01% then olaparib 10 μM 4 h
Description: Briefly, 500.000 cells were seeded onto six-well plates, and treated with 350 nM hmdU or 0.01% MMS for 24 hours at which point cells were either left untreated or treated with 10 μM olaparib for 4 h. Cells were fractionated with the Subcellular Protein Fractionation kit for Cultured Cells (ThermoFisher #78840) according to the manufacturer's instructions. Soluble and chromatin fractions were analysed by immunoblotting for PARP1 (Cell Signaling #9542, rabbit) and yH2AX (Millipore, JBW301) antibodies. Incubation with primary antibody was followed by incubation with a horseradish peroxidase-conjugated secondary antibody and chemiluminescent detection of proteins (Amersham Pharmacia, Cardiff, UK).

[2] = test system: eHAP MUS81−/−DNPH1−/− cells; assay: Cell viability assay (CellTiter-Glo), eHAP MUS81−/−DNPH1−/− cells; assay type: cell-based, human; conditions: nucleoside 200 nM, 6 days, vs MUS81 k/o
Description: (§1) For analysis of cell viability following exposure to olaparib (Selleckchem), deoxyribonucleosides and DNPH1i (N6-benzyladenosine, Carbosynth), cells were seeded in 96-well plates at a density of 100-500 cells per well. Twenty-four hours post-seeding, drug treatments were initiated, and cells were continuously exposed until termination of the experiment. Cell viability was measured using CellTiter-Glo (Promega). The surviving fractions were measured, and drug sensitivity curves were plotted using GraphPad Prism. The following nucleosides were purchased from commercial sources: dU (2′-deoxyuridine), hdU (5-hydroxy-2′-deoxyuridine), hmdU (5-hydroxymethyl-2′-deoxyuridine), mdC (5-methyl-2′-deoxycytidine), hmdC (5-hydroxymethyl-2′-deoxycytidine), cadC (5-carboxy-2-deoxycytidine), fodC (5-formyl-2-deoxycytidine), dl (2′-deoxyinosine), dX (2′-deoxyxanthosine), 8odG (8-oxo-2′-deoxyguanosine), hmU (5 hydroxymethyluridine), hmC (5-hydroxymethyl-cytidine). fodU (5-formyl-2′-deoxyuridine) was synthesized as previously described (Guo et al Org. Biomol. Chem. 11, 1610-1613 (2013).

[3] = test system: BRCA2/DNPH1 double knock-out cell lines (DLD1); assay: Cell viability assay, DLD1 BRCA2/DNPH1 double knock-out cells; assay type: cell-based; conditions: absence of a PARP inhibitor; two independent double knock-out lines
Description: as §1

[4] = test system: SUM149 WT (revertant) cells; assay: Cell viability assay, SUM149 WT (revertant) cells; assay type: cell-based, human; conditions: hmdU with DNPH1i 0.5 μM or olaparib, 8 days
Description: as §1

[5] = test system: DCTD k/o cell lines; assay: Cell viability, DCTD k/o cell lines; assay type: cell-based
Description: as §1

[6] = test system: SUM149 BRCA1mut/PARP1−/− cells; assay: Cell viability assay, SUM149 BRCA1mut/PARP1−/− cells; assay type: cell-based, human; conditions: PARPi-resistant cells; hmdU 2 μM + olaparib; ratio of EC50 values
[7] = test system: DLD1 WT, BRCA2 and DNPH1 single knock-out cell lines; assay: Cell viability assay, DLD1 WT and single knock-out cells; assay type: cell-based; conditions: highest dose tested
Description: as §1

[8] = test system: DLD1 BRCA2−/− cells; assay: Cell viability assay, DLD1 BRCA2−/− cells; assay type: cell-based; conditions: olaparib 10 nM or hmdU 2 μM, 10 days
Description: as §1

[9] = test system: eHAP MUS81−/− cells; assay: Cell viability assay (CellTiter-Glo), eHAP MUS81−/− cells; assay type: cell-based, human; conditions: single agent
Description: as §1

[10] = test system: SUM149 BRCA1mut/53BP1−/− cells; assay: Cell viability assay, SUM149 BRCA1mut/53BP1−/− cells; assay type: cell-based, human; conditions: PARPi-resistant cells; hmdU 2 μM + olaparib; ratio of EC50 values
[11] = test system: SUM149 BRCA1mut (parental) cells; assay: Cell viability assay, SUM149 BRCA1mut (parental) cells; assay type: cell-based, human; conditions: 8 days
Description: as §1

[12] = test system: eHAP WT and DNPH1 k/o cells; assay: Nucleoside composition of genomic DNA by LC-MS; assay type: cell-based, human; conditions: cells treated with exogenous hmdU; DNPH1 k/o vs WT
Description: Cells (5×10^7) were collected and DNA extracted using Gentra Puregene Cell Kit (Qiagen) supplemented with RNAse (Qiagen) and 100 mM tetrahydrouridine (Merck). DNA was digested to mononucleosides by modification of a published protocol (41). Briefly, reactions were carried out in […] buffer containing […] DNA, 50 mM Tris pH 9.0, 20 mM NaCl, 5 mM MgCl2, 1 kU Benzonase, 1 U phosphodiesterase I and 10 U FastAP alkaline phosphatase for 48 hrs at 37° C. The samples were then precipitated with chloroform and labelled standards of deoxyadenosine (dA), deoxycytidine (dC), deoxyguanosine (dG) and deoxythymidine (dT) were spiked for normalization of the signal response from modified deoxynucleosides. Polar phases were analyzed by LC-MS/MS using a using a reverse phase column (100×2.1 mm, 3 μm, Fortis C18, Fortis Technologies) on a Dionex UltiMate LC system coupled to a TSQ Quantiva™ Triple Quadrupole (Thermo Scientific) mass spectrometer with a HESI 11 (heated electrospray ionization) source. The mobile phases consisted of water containing 0.1% acetic acid (mobile phase A) and acetonitrile (mobile phase B). A gradient of 12 min 0-12% B and 1 min 12-60% B was used for the separation of all the modified nucleosides. […]

Row | SMILES | difference in PARP trapping or DNA damage signaling between WT and SMUG1-deficient cells [1] | sensitivity of MUS81/DNPH1 k/o cells to nucleoside treatment (cell viability) [2] | cells killed by hmdU [3] | effect of treatment on isogenic WT cells [4] | resistance of DCTD k/o cells to nucleoside treatment [5] | expansion of the therapeutic window of olaparib by hmdU [6] [fold] | sensitivity to hmdU [7] | effect on viability, agent alone [8] | effect on viability, agent alone [9] | expansion of the therapeutic window of olaparib by hmdU [10] [fold] | synthetic lethality of hmdU with DNPH1 inhibition ([11]; DNPH1i 0.5 μM) | expansion of the therapeutic window of olaparib by addition of hmdU ([11]; hmdU 2 μM + olaparib vs olaparib alone, ratio of EC50 values revertant vs BRCA1mut) [fold] | effect on viability, agent alone ([11]; olaparib 250 nM or hmdU 2 μM) | increase in genomic hmdU in DNPH1 k/o cells after hmdU treatment [12] [fold]
1 | COS(C)(=O)=O [MMS, methyl methanesulfonate] | did not observe any difference |  |  |  |  |  |  |  |  |  |  |  |  | 
2 | O=c1[nH]c(=O)n([C@H]2C[C@H](O)[C@@H](CO)O2)cc1CO [hmdU, 5-hydroxymethyl-2′-deoxyuridine] |  | hypersensitive | over 95% | unaffected | not | 3 | resistant to the highest dose tested | limited effect on viability | no effect on viability | 3 | to the same extent as Olaparib alone | 4 | limited effect on viability | 3

Reference: patent US20220339179A1, “TREATMENT OF HR DEFICIENT CANCER” (THE FRANCIS CRICK INSTITUTE LIMITED, priority 2019, published 2022)
